Read-outs that look alike come from different tables or passages of the source.
Columns and labels:
Assay in all cases: Methyltransferase selectivity assay (SPA)
Format in all cases: biochemical
SUV39H2 = biological target: T1, SUV39H2 (Homo sapiens, UniProt Q9H5I1)
T1 construct: purchased Structural Genomics Consortium (SGC Toronto) in-house methyltransferase panel
Method: (§1) Selectivity against methyltransferases were determined as described previously. Details of the assays are described in the supplementary methods.
(§2) Methyltransferase selectivity assay1
(§3) The effect of chemical probes and negative controls on the methyltransferase activities of protein, DNA and RNA methyltransferases was tested by radiometric assays using 3H-SAM. For proteins such as MLL1 trimeric, MLL3 pentameric, EZH1 (PRC2) pentameric, and EZH2 (PRC2) trimeric complexes, as well as G9a, GLP, SUV39H1, SUV39H2, SUV420H1, SUV420H2, SETD2, SETD8, SETDB1, SETD7, PRMT1, PRMT3, PRMT4, PRMT5/ MEP50 complex, PRMT6, PRMT7, PRMT8, PRMT9, PRDM9, SMYD2, SMYD3, DNMT1, and BCDIN3D the incorporation of a tritium-labeled methyl group into biotinylated substrate was monitored using scintillation proximity assay (SPA). Briefly, a 10 µL reaction containing 3H-SAM and substrate at concentrations close to the apparent Km values for each enzyme (balanced conditions) was prepared. The reactions were quenched with 10 µL of 7.5 M guanidine hydrochloride; 180 µL of 20 mM Tris buffer (pH 8.0) were added, and the mixture was transferred to a 96-well FlashPlate and incubated for 1 h. The counts per minute (CPM) was measured on a TopCount plate reader. The CPM in the absence of compound or enzyme was defined as 100% activity and background (0%), respectively, for each dataset. […]

SETDB1 = biological target: T2, SETDB1 (Homo sapiens, UniProt Q15047)
T2 construct: purchased Structural Genomics Consortium (SGC Toronto) in-house methyltransferase panel
Method: as §1, §2, §3

SMYD2 = biological target: T3, SMYD2 (Homo sapiens, UniProt Q9NRG4)
T3 construct: purchased Structural Genomics Consortium (SGC Toronto) in-house methyltransferase panel
T3 sequence (Q9NRG4 whole entry): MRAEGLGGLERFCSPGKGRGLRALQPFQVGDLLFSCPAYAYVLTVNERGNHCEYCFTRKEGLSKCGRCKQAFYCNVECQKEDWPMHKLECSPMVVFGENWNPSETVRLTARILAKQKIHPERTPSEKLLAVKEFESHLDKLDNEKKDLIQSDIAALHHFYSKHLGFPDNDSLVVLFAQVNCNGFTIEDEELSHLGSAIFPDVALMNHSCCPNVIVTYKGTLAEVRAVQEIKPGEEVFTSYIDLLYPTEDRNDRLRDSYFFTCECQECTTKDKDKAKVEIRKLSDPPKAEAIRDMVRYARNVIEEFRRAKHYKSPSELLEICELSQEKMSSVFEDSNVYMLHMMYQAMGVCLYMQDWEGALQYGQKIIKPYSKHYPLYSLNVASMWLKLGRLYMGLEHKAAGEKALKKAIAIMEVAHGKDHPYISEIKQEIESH
Method: as §1, §2, §3

PRMT6 = biological target: T4, PRMT6 (Homo sapiens, UniProt Q96LA8)
T4 construct: purchased Structural Genomics Consortium (SGC Toronto) in-house methyltransferase panel
T4 sequence (Q96LA8 whole entry): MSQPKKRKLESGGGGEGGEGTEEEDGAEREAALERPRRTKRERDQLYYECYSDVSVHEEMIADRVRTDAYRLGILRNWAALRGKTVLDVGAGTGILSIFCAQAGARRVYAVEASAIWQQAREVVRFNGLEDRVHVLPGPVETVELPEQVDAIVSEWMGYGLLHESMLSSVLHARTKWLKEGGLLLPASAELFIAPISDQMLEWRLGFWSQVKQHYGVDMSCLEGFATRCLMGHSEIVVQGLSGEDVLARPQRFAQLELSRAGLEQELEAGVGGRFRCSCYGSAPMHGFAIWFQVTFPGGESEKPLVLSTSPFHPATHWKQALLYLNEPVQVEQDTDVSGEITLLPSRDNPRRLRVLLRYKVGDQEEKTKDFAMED
Method: as §1, §2, §3

PRMT5/ MEP50 complex = biological target: T5, PRMT5/ MEP50 complex (Homo sapiens, UniProt O14744)
T5 construct: purchased Structural Genomics Consortium (SGC Toronto) in-house methyltransferase panel
T5 sequence (O14744 whole entry): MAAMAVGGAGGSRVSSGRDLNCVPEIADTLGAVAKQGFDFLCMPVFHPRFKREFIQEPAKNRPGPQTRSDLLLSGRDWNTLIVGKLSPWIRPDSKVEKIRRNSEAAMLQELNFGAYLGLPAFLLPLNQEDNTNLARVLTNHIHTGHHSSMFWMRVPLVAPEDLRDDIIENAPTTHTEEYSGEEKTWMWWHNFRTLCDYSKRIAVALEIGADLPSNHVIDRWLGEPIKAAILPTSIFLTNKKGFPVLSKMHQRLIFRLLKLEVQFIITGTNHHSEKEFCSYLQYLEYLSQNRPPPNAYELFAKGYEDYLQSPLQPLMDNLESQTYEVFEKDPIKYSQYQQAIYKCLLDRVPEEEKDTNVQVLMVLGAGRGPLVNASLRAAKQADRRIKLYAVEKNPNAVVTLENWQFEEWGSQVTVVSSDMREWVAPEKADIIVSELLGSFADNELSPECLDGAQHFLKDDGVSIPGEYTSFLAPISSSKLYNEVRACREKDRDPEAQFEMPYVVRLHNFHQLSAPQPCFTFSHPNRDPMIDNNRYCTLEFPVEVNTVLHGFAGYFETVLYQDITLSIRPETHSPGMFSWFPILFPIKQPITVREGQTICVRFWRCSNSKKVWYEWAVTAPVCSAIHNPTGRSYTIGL
T5 sequence (Q9BQA1 whole entry partner): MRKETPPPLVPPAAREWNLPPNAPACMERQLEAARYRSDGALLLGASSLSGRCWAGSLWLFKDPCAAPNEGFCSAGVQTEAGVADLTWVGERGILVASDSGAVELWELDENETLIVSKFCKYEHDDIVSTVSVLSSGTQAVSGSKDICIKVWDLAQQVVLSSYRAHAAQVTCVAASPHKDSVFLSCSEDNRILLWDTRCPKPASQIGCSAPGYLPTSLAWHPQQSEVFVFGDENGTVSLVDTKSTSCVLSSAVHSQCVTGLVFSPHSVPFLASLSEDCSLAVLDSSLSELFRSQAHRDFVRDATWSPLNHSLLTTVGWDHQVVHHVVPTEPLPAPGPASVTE
Method: as §1, §2, §3

PRMT7 = biological target: T6, PRMT7 (Homo sapiens, UniProt Q9NVM4)
T6 construct: purchased Structural Genomics Consortium (SGC Toronto) in-house methyltransferase panel
T6 sequence (Q9NVM4 1-692): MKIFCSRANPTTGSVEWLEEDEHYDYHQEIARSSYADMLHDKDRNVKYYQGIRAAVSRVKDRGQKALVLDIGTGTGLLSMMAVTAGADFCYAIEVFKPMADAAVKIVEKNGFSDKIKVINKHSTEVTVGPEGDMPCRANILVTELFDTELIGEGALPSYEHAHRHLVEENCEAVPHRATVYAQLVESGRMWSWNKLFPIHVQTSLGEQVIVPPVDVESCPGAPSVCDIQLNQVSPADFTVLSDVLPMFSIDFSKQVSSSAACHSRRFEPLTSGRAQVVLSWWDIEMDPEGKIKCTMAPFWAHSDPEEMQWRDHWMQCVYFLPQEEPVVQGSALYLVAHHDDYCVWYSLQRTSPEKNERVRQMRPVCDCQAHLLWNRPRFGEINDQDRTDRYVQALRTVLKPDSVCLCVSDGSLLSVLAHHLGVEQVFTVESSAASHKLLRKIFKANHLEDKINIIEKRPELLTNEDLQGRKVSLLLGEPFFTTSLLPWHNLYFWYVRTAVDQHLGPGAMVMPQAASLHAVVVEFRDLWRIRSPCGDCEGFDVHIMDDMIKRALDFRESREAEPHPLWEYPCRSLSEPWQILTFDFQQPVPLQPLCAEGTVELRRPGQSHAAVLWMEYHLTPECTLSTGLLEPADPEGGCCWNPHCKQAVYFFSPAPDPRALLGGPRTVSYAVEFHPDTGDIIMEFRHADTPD
Method: as §1, §2, §3

MLL3 pentameric complex = biological target: T7, MLL3 pentameric complex (Homo sapiens, UniProt Q8NEZ4)
T7 construct: purchased Structural Genomics Consortium (SGC Toronto) in-house methyltransferase panel
Method: as §1, §2, §3

SUV39H1 = biological target: T8, SUV39H1 (Homo sapiens, UniProt O43463)
T8 construct: purchased Structural Genomics Consortium (SGC Toronto) in-house methyltransferase panel
T8 sequence (O43463 1-412): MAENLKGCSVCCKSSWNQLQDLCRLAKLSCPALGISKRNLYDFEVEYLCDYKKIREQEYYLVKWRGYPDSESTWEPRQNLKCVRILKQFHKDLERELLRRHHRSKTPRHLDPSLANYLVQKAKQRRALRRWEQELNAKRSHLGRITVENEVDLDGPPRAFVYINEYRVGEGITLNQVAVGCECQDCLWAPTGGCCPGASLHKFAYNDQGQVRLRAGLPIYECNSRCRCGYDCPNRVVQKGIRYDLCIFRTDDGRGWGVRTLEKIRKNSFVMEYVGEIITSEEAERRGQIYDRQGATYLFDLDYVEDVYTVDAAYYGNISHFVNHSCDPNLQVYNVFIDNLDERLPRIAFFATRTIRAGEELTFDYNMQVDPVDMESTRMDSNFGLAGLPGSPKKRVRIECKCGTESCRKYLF
Method: as §1, §2, §3

[1] = biological target: T9, EZH2 (PRC2) trimeric complex (Homo sapiens, UniProt Q15910)
T9 construct: purchased Structural Genomics Consortium (SGC Toronto) in-house methyltransferase panel
T9 sequence (Q15910 whole entry): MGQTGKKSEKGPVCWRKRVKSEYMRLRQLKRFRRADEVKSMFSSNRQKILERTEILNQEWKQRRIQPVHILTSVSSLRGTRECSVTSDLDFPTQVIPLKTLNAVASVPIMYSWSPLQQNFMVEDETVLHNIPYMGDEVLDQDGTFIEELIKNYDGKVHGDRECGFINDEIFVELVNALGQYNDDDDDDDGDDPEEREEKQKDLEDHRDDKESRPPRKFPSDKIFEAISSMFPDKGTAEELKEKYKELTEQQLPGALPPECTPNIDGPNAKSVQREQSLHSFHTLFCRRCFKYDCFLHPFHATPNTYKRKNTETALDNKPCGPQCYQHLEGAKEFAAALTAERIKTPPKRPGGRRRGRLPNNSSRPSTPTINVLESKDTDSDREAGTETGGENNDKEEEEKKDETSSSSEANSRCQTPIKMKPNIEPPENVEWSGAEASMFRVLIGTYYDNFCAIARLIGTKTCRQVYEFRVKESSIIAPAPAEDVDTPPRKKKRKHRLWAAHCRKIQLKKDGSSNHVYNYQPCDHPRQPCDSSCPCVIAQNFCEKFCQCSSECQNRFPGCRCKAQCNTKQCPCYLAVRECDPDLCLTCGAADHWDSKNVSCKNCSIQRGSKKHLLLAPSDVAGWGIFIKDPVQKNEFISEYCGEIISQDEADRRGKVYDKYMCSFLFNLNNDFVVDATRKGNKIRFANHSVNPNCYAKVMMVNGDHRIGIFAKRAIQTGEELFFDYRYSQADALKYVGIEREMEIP
T9 sequence (O75530 whole entry partner): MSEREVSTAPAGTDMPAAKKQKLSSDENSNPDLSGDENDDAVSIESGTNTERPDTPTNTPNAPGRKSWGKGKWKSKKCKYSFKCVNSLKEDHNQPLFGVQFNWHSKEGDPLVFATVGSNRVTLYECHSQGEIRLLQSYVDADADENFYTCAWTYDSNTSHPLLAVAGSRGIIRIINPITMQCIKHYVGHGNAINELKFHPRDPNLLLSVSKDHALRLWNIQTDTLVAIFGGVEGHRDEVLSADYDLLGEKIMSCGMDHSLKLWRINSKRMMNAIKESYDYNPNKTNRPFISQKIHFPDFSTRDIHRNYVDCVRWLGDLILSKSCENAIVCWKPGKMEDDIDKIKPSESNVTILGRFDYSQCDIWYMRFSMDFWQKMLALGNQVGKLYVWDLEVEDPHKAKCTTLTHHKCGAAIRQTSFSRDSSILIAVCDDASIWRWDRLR
T9 sequence (Q15022 whole entry partner): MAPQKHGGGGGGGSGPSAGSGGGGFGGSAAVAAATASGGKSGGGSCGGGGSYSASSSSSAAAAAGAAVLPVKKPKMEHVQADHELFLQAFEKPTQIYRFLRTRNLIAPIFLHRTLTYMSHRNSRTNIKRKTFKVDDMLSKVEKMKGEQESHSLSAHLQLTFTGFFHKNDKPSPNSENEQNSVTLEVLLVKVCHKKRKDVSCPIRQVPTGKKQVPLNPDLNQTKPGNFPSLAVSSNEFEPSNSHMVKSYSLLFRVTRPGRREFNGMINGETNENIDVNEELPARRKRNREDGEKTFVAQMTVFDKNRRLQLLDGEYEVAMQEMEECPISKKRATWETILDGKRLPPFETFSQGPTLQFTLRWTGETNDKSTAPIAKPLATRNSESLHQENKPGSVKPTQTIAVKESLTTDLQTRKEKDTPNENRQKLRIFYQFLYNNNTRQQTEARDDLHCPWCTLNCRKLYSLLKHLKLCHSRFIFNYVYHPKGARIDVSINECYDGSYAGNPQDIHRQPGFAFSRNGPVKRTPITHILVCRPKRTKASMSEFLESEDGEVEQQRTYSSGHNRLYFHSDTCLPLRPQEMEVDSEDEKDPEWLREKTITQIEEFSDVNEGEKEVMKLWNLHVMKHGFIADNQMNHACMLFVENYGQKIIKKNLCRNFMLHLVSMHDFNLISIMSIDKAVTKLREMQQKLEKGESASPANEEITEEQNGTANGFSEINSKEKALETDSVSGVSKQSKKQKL
Method: as §1, §2, §3

[2] = 10µM compound, Exp1, Exp2, 10 µM
[3] = 1µM compound, Exp1, Exp2, read-out: Activity %
[4] = 10µM compound, Exp1, Exp2, read-out: Activity %

T1 sequence (Q9H5I1 whole entry): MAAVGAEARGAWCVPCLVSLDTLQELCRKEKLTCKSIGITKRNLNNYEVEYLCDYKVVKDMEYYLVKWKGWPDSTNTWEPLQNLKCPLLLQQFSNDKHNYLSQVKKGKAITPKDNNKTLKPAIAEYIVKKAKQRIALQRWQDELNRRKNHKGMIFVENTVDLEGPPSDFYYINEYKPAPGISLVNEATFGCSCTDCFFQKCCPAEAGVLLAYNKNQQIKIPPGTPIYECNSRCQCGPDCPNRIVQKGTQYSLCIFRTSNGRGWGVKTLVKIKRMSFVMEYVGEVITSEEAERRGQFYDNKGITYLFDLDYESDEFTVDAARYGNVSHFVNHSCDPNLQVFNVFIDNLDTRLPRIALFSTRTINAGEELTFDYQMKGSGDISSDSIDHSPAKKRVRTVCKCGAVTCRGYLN

COc1cc(OC)cc(-c2noc(N3CCN(C)C4(CCN(c5ccccc5)CC4)C3)n2)c1 [MRK-740 -NC]
activity at 1 µM (SUV39H2; 1µM compound, Exp1, Exp2): 93%
activity at 10 µM (SUV39H2; 10µM compound, Exp1, Exp2): 86%
Activity % (SUV39H2; [2]): 96%
activity at 1 µM (SETDB1; 1µM compound, Exp1, Exp2): 104%
activity at 10 µM (SETDB1; 10µM compound, Exp1, Exp2): 101%
Activity % (SETDB1; [2]): 86%
activity at 1 µM (SMYD2; 1µM compound, Exp1, Exp2): 102%
Activity % (SMYD2; 1µM compound, Exp1, Exp2, 1 µM): 100%
activity at 10 µM (SMYD2; 10µM compound, Exp1, Exp2): 101%
Activity % (SMYD2; [2]): 99%
activity at 1 µM (PRMT6; 1µM compound, Exp1, Exp2): 98%
Activity % (PRMT6; 1µM compound, Exp1, Exp2, 1 µM): 97%
activity at 10 µM (PRMT6; 10µM compound, Exp1, Exp2): 96%
Activity % (PRMT6; [2]): 95%
activity at 1 µM (PRMT5/ MEP50 complex; 1µM compound, Exp1, Exp2): 108%
Activity % (PRMT5/ MEP50 complex; 1µM compound, Exp1, Exp2, 1 µM): 99%
activity at 10 µM (PRMT5/ MEP50 complex; 10µM compound, Exp1, Exp2): 95%
Activity % (PRMT5/ MEP50 complex; [2]): 102%
activity at 1 µM (PRMT7; 1µM compound, Exp1, Exp2): 99%
Activity % (PRMT7; 1µM compound, Exp1, Exp2, 1 µM): 92%
activity at 10 µM (PRMT7; 10µM compound, Exp1, Exp2): 91%
Activity % (PRMT7; [2]): 97%
activity at 1 µM (MLL3 pentameric complex; 1µM compound, Exp1, Exp2): 108%
Activity % (MLL3 pentameric complex; 1µM compound, Exp1, Exp2, 1 µM): 105%
activity at 10 µM (MLL3 pentameric complex; 10µM compound, Exp1, Exp2): 107%
Activity % (MLL3 pentameric complex; [2]): 95%
activity at 1 µM (SUV39H1; 1µM compound, Exp1, Exp2): 100%
Activity % (SUV39H1; 1µM compound, Exp1, Exp2, 1 µM): 104%
activity at 10 µM (SUV39H1; 10µM compound, Exp1, Exp2): 101%
activity at 1 µM ([1]; 1µM compound, Exp1, Exp2): 99%
Activity % ([1]; 1µM compound, Exp1, Exp2, 1 µM): 112%
activity at 10 µM ([1]; 10µM compound, Exp1, Exp2): 100%
Activity % [1, 2]: 95%

COc1cc(OC)cc(-c2noc(N3CCN(C)C4(CCN(c5ccnc(C)c5)CC4)C3)n2)c1 [MRK-740]
Activity % (SUV39H2; 1µM compound, Exp1, Exp2, 1 µM): 89%
activity at 1 µM (SUV39H2; [3]): 92%
Activity % (SUV39H2; [2]): 90%
activity at 10 µM (SUV39H2; [4]): 92%
Activity % (SETDB1; 1µM compound, Exp1, Exp2, 1 µM): 84%
activity at 1 µM (SETDB1; [3]): 81%
Activity % (SETDB1; [2]): 96%
activity at 10 µM (SETDB1; [4]): 86%
Activity % (SMYD2; 1µM compound, Exp1, Exp2, 1 µM): 89%
activity at 1 µM (SMYD2; [3]): 86%
Activity % (SMYD2; [2]): 92%
activity at 10 µM (SMYD2; [4]): 91%
Activity % (PRMT6; 1µM compound, Exp1, Exp2, 1 µM): 94%
activity at 1 µM (PRMT6; [3]): 98%
Activity % (PRMT6; [2]): 93%
activity at 10 µM (PRMT6; [4]): 98%
activity at 1 µM (PRMT5/ MEP50 complex; [3]): 90%
activity at 10 µM (PRMT5/ MEP50 complex; [4]): 94%
Activity % (PRMT7; 1µM compound, Exp1, Exp2, 1 µM): 90%
activity at 1 µM (PRMT7; [3]): 92%
Activity % (PRMT7; [2]): 87%
activity at 10 µM (PRMT7; [4]): 89%
Activity % (MLL3 pentameric complex; 1µM compound, Exp1, Exp2, 1 µM): 95%
activity at 1 µM (MLL3 pentameric complex; [3]): 89%
Activity % (MLL3 pentameric complex; [2]): 86%
activity at 10 µM (MLL3 pentameric complex; [4]): 94%
Activity % (SUV39H1; 1µM compound, Exp1, Exp2, 1 µM): 85%
activity at 1 µM (SUV39H1; [3]): 84%
Activity % (SUV39H1; [2]): 80%
activity at 10 µM (SUV39H1; [4]): 84%
Activity % ([1]; 1µM compound, Exp1, Exp2, 1 µM): 104%
activity at 1 µM [1, 3]: 102%
Activity % [1, 2]: 103%
activity at 10 µM [1, 4]: 102%

From article PMC6917776, “Discovery of a chemical probe for PRDM9” (Nature Communications, 2019)
